The text below walks through data of ChEMBL document CHEMBL3399933, “A combination of in silico and SAR studies to identify binding hot spots of Bcl-xL inhibitors” (Bioorg Med Chem, 2015).

This experiment deals with Bcl-2-like protein 1 (Homo sapiens, UniProt Q07817). Description: Inhibition of GST-tagged Bcl-xL (unknown origin) measured after 1 hr incubation by fluorescence polarization assay. (Polarisation of emitted light reports the rotation of a fluorescent probe.)
Sequence of Bcl-2-like protein 1 (Q07817 whole entry): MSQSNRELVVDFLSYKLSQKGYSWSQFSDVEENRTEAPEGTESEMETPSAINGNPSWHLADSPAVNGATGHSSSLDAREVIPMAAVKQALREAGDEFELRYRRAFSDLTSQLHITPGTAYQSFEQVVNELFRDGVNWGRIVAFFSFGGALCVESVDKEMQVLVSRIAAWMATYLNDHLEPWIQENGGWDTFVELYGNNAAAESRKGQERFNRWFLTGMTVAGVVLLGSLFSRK
Regarding `CCCN(C(=O)N[C@@H](CSCc1ccc(Br)cc1)C(=O)O)C(=O)c1cccc(C#Cc2ccc(F)cc2F)c1`, the 50% inhibitory concentration (IC50) came out at 13 µM. `Cc1c(C(=O)O)c(-c2cccc(N3CCN(c4ccc(NS(=O)(=O)c5ccc(NC(CCN(C)C)CSc6ccccc6)c([N+](=O)[O-])c5)cc4)CC3)c2)c(-c2ccc(Cl)cc2)n1C` (centres undefined) gave an IC50 of 0.006 µM. Compound `CN(C)CC[C@H](CSc1ccccc1)Nc1ccc(S(=O)(=O)Nc2ncnc3cc(N4CCN(Cc5ccccc5-c5ccc(Cl)cc5)CC4)ccc23)cc1[N+](=O)[O-]` showed an IC50 of 0.003 µM. Regarding `CN(C)CC[C@H](CSc1ccccc1)Nc1ccc(S(=O)(=O)NC(=O)c2ccc(N3CCN(Cc4cccc(-c5ccccc5)c4)CC3)cc2)cc1[N+](=O)[O-]`, half-maximal inhibition (IC50) required 0.011 µM. As to `O=C(O)c1cccc(-c2ccc3c(c2)/C(=N/Nc2nc4ccccc4s2)CCC3)n1`, inhibition was half-maximal at 0.021 µM (IC50). For `O=C(O)c1ccccc1C(=O)c1ccc(Sc2ccc(Cl)cc2)c([N+](=O)[O-])c1`, the affinity corresponds to a Ki of 0.5 µM. The same measure, in the same setting: under `Cc1cc2c(C(C)C)c(O)c(O)c(C=O)c2c(O)c1-c1c(C)cc2c(C(C)C)c(O)c(O)c(C=O)c2c1O` [GOSSYPOL] stands 1 µM; under `CC(C)C(C(=O)O)N1C(=O)/C(=C/c2ccc(Br)cc2)SC1=S` (centres undefined), 2.4 µM. `CCCN(C(=O)N[C@@H](CSCC(C)C)C(=O)O)C(=O)c1cccc(C#Cc2ccc(F)cc2F)c1`: half-maximal inhibition (IC50) required 22 µM.

For orientation: IC50 means the concentration at which inhibition is half-maximal. A word on the Ki: it is the equilibrium dissociation constant of an inhibitor or competing ligand from its target. Higher therefore signals lower affinity.
